Consider two molecules from US20250360099A2, “A significantly non-toxic novel Cobalt(III) Schiff base complex induces apoptosis via G2-M cell cycle arrest in human breast cancer cell line MCF-7 and cell cycle arrest of colon cancer cell lines HCT-116 and SW- 480 via G0-G1” (CHITTARANJAN NATIONAL CANCER INSTITUTE, priority 2023, published 2025).

Read-outs that look alike come from different tables or passages of the source.

For data set [1], the system named is HCT-116. The experiment in a line: MTT study with OCT3 inhibitor, HCT-116. It counts as cell-based, human. To be noted: at the respective doses of inhibitor.
Data set [2] relates to SW-480. The data set is described as follows: MTT study with OCT3 inhibitor, SW-480. Particulars: at the respective doses of inhibitor. Type of data set: cell-based, human.
In data set [3] the test system is Human colon cancer cell line HCT-116. The experiment in a line: XTT assay, cytotoxicity on HCT-116. Type of data set: cell-based. To be noted: 24 h. The source says:
(§1) Colon cancer cell lines and culture condition: Human colon cancer cell lines HCT-116 and SW-480 were purchased from NCCS, Pune. The carcinoma cell line (HCT-116) is wild-type for TP53 and adenocarcinoma cell line (SW480) is a double-mutant for TP53 gene.
Background: Formazan colour is commonly taken as a measure of viable cells.

Data set [4] concerns Human colon cancer cell line SW-480. The experiment in a line: XTT assay, cytotoxicity on SW-480. It counts as cell-based. To be noted: 24 h.
From the text: as §1

The test system of data set [5] is MCF-7 cells. The experiment in a line: FACS-based Annexin V-FITC/PI dual staining assay. It counts as cell-based, human. To be noted: IC50 dose, 24 h. The method, then:
FACS-based Annexin V-FITC/PI dual staining assay: MCF-7 cells were seeded in 6-well plate at 1×10^5 cells per well and treated with an IC50 dose of complex 1 and oxaliplatin for 24 h, after which they were harvested by trypsinization and processed into cell suspensions (10^6 cells were taken from each group). Cells were centrifuged at 800 g before being re-suspended in a dye mix that included 250 μL Annexin V-FITC binding buffer, 1 μL PI solution, and 3 μL Annexin V-FITC solution as per assay kit protocol. For 15 minutes, the cell suspension was kept in dark. The BD FACS Verse was used to detect the intensities of red and green fluorescence, and Flowjo software (version 10) was used to assess the apoptotic rates of treated cells. Ten thousand events were collected to determine the population percentage. All experiments were repeated three times, and the results were presented as mean±SD.

The subject of data set [6] is MCF-7 cells. The experiment in a line: Cell cycle study by flow cytometry after PI staining. It counts as cell-based, human. Particulars: IC50 concentration, 24 h; untreated 8.88%. As for the experimental part: (§2) Cell proliferation and cycle study using FACS: To detect cell proliferation, CFSE dye was used. At first, MCF-7 cells were stained with 5 μM of CFSE dye for 15 min at 37° C. followed by the addition of FBS containing RPMI 1640 medium to end the reaction. Then CFSE-stained cells were cultured with both oxaliplatin and complex 1 for 24 h in 35-mm plates. One set of stained untreated cells was seeded only in complete media without any compound. For inhibition of proliferation, cells were grown in a serum-free medium (starvation) for 24 h as a positive control. On the next day, the green fluorescence intensity of CFSE within each cell was measured by flow cytometry, and data were calculated using Flowjo software (version 10). For cell cycle study, MCF-7 cells were seeded at 1×10^5 cells per well in a 6-well plate, treated with an IC50 dose of complex 1 and oxaliplatin for 24 h, then digested by trypsinization and made into cell suspension (10^6 cells were harvested from each group) in 2% FBS containing 1×PBS, followed by fixation in 70% ethanol overnight at 4° C. After that cells were centrifuged at 850×g in a low-temperature centrifuge for 5 min. […] BD FACS flow cytometer was used to assess the difference in cell cycle phase distribution of nuclear DNA, which was then analyzed using Flowjo software (version 10). […]
(A flow cytometer gives signals particle by particle.)

Data set [7] concerns MCF-7 cells. The data set is described as follows: CFSE cell proliferation assay (FACS). Type of data set: cell-based, human. To be noted: IC50 dose, 24 h. As for the experimental part: as §2
For data set [8], the system named is HCT-116 cells. The data set is described as follows: TUNEL staining, fluorescence microscopy. Type of data set: cell-based, human. To be noted: 24 h.
Data set [9] deals with HCT-116. The experiment in a line: Annexin V-FITC/PI-PE dual staining, HCT-116. It counts as cell-based, human. To be noted: respective IC50 dose, 24 h.
In data set [10] the test system is SW-480. The experiment in a line: Annexin V-FITC/PI-PE dual staining, SW-480. It counts as cell-based, human. Particulars: respective IC50 dose, 24 h.
For data set [11], the system named is HCT-116. The data set is described as follows: CFSE cell proliferation, HCT-116. Type of data set: cell-based, human. To be noted: respective IC50 dose, 24 h.
The subject of data set [12] is SW-480. The experiment in a line: CFSE cell proliferation, SW-480. Type of data set: cell-based, human. Particulars: respective IC50 dose, 24 h.
The subject of data set [13] is HCT-116. The data set is described as follows: Cell cycle distribution (PI), HCT-116. Type of data set: cell-based, human. Particulars: 24 h.
Data set [14] concerns SW-480. The experiment in a line: Cell cycle distribution (PI), SW-480. To be noted: 24 h. Type of data set: cell-based, human.
The test system of data set [15] is HCT-116. The experiment in a line: Wound healing (scratch) assay, HCT-116. Type of data set: cell-based, human. Particulars: IC50 dose, 12-48 h.
Data set [16] deals with SW-480. The experiment in a line: Wound healing (scratch) assay, SW-480. Type of data set: cell-based, human. To be noted: IC50 dose, 12-48 h.
The subject of data set [17] is human breast cancer cell line MCF-7. The experiment in a line: MTT assay, cytotoxicity on breast cancer cells.
Procedure: Breast cancer cell line and culture condition: Cells were cultured in a humidified air-jacked CO2 incubator (Thermo scientific, Heracellvios 160i). […] Human breast cancer cells lines MCF-7, were purchased from NCCS, Pune. […] The cells were cultured as monolayers in RPMI-1640 supplemented with 10% heat-inactivated fetal bovine serum (FBS), 1% penicillin-streptomycin, and 1% antibiotic-antimycotics and 1% non-essential amino acids at 37° C. in a fully humidified air-jacketed incubator of 5% CO2 and 95% air. All the experiments were performed from exponentially growing passage of 15 or less with 80% cell confluency and then sub-cultured to a fresh media to keep cells healthy and actively growing.
The MTT assay is a quantitative, sensitive, and reliable colorimetric assay that mainly measures cell viability and proliferation. […] The cells viability was estimated spectrophotometrically by measuring absorbance at 570 nm using an ELISA plate reader. To calculate the cell viability percentage, the average absorbance of each treatment group was acquired and normalized based on the untreated control. The half inhibitory concentration (IC50 value) was calculated by putting the experimental data with the dose-response model (Prism 6, Version 6.0b, GraphPad Software).

As to `CCN1/C(=C/c2ccc3ccccc3[n+]2CC)C=Cc2ccccc21.[I-]` [Dycenium-22], the “toxicity of the inhibitor itself, HCT-116” value in data set [1] is “non-toxic”. Besides, the “toxicity of the inhibitor itself, SW-480” value in [2] is on record as “non-toxic”.
For `O=C1[O][Pt]2([NH][C@@H]3CCCC[C@H]3[NH]2)[O]C1=O` [oxaliplatin, reference compound], the IC50 (in general, the concentration that gives 50% inhibition) in data set [3] was found to be 16.7 ± 1.78 µM; in [4], 7.87 ± 1.54 µM; in data set [17] (read-out: IC50, cytotoxicity on MCF-7 cells, 24 h, mean±SD) it was 31.4 ± 0.69 µM; in [17] (read-out: IC50, cytotoxicity on MCF-7 cells, 48 h, mean±SD), 15.1 ± 1.81 µM. The “late apoptotic (Annexin V+/PI+) population” value in data set [5] (untreated 2.87%) amounted to 23.9%. The “early apoptotic population (Annexin V+/PI−)” value in data set [5] (untreated 4.96%) stood at 9.58%. For the same molecule, the “population of cells in the G2-M phase” value in [6] was 21.3%. For the same molecule, the “CFSE staining intensity vs untreated controls” value in [7] is reported as “significantly higher”. Also, the “TUNEL-positive cells vs untreated control” value in data set [8] is on record as “increased number of TUNEL-positive cells”. Also, the “number of apoptotic cells vs untreated, HCT-116” value in data set [9] was “elevated the number of apoptotic cells”. Besides, in data set [10], the “number of apoptotic cells vs untreated, SW-480” value is “elevated the number of apoptotic cells”. Further, the “cell proliferation, HCT-116” value in data set [11] is listed as “suppressed the cell proliferation”. Besides, in data set [12], the “cell proliferation, SW-480” value was “suppressed the cell proliferation”. The “cell cycle distribution, HCT-116” value in data set [13] is listed as “cell cycle arrest at G0-G1 phase”. Besides, the “cell cycle distribution, SW-480” value in data set [14] was “cell cycle arrest at G0-G1 phase”. In addition, the “migration of cells vs untreated, HCT-116” value in [15] was “reduced the migration of cells”. The “migration of cells vs untreated, SW-480” value in data set [16] was “reduced the migration of cells”.
